Experiment [1] relates to AML cell lines (HL60/VCR, OCI-AML2, THP-1). The experiment can be described thus: Viability of AML cell lines, MTS and Cell Titer Glo (FIGS. 2, 4, Table 2). The experiment is classed as cell-based, human. Particulars: 24 hours. The protocol:
Representative human AML cell lines (FIG. 2A; upper and lower panels) HL60/VCR and (FIG. 2B; upper and lower panels) OCI-AML2 were treated with SACLAC for 24 and 48 hours. Viability was assessed by MTS assay at 24 and 48 hours and apoptosis was assessed by flow cytometry at 48 hours. Upper panels represent % viability and lower panels indicate % apoptosis.
(§1) AML cell lines and normal samples (PBMCs and/or CD34+ cells) were treated for 24 hours with SACLAC (FIG. 4A-7 cell lines) and similar AC inhibitor SABRAC (2-bromo-N-((2S,3R)-1,3-dihydroxyoctadecan-2-yl)acetamide) (FIG. 4B-four cell lines). Viability was assessed by MTS and Cell Titer Glo viability assays. EC50 values (FIG. 4C) were graphed to visualize fold-change between AML and normal cells with treatment of each compound. […] Cells tested for SABRAC were HL60/VCR and OCI-AML2 AML cell lines and two normal PBMC control samples (PBMC1 and PBMC2). The same four cell types were tested for SACLAC, as well as the AML cell line THP-1 and two normal CD34+ cell control samples (CD34+1 and CD34+2).
(§2) Next, we tested the toxicity of SACLAC and a similar published AC inhibitor SABRAC^17 to normal hematopoietic cells to ensure that AML cells are selectively targeted by the compound (FIG. 4A). […] This degree of selectivity was unexpected but extremely important for potential clinical use. […] This remarkable increase in selectivity is a surprising discovery that greatly exceeds the predicted similarity in compound behavior that one may expect with a simple substitution of one halogen for another (Cl for Br).
A general note: ATP-based viability assays read luminescence as a measure of living cells.

Experiment [2] concerns normal samples (PBMCs and/or CD34+ cells). The experiment can be described thus: Viability of normal samples, MTS and Cell Titer Glo (FIG. 4, Table 2). It counts as cell-based. The note with it: 24 hours. The protocol: as §1, §2

Where two headings read alike, the source gives them in different places.

As a reminder, the EC50 is the concentration needed to bring the measured effect to its halfway point. For the molecule `CCCCCCCCCCCCCCC[C@@H](O)[C@H](CO)NC(=O)CBr` [SABRAC, 2-bromo-N-((2S,3R)-1,3-dihydroxyoctadecan-2-yl)acetamide, reference compound], the “Fold Change” value in experiment [1] (EC50 Normal versus EC50 AML) is given as 1.25. In addition, the EC50 was 360 nM in experiment [1] (Homo sapiens, 24 h, mean of AML cell lines, read-out: EC50 AML); 600 nM in experiment [2] (SACLAC: PBMC1, PBMC2, CD34+1, CD34+2, SABRAC: PBMC1, PBMC2, order of samples not given, read-out: EC50, single normal samples (FIG. 4A, 4B)); 450 nM in experiment [2] (PBMC, 24 h, mean of normal samples (PBMCs and/or CD34+ cells), read-out: EC50 Normal).

The values are drawn from patent publication US11426371B2, “Compositions and methods for treating cancer” (University of Virginia Patent Foundation, priority 2017, dated 2022).
